Data published in US20110230367A1, “Amphiphilic Peptides Promoting Production of Target miRNA and Method of Regulating Production of Target miRNA” (SNU R&DB FOUNDATION, priority 2009, published 2011).
Entries after “also recorded” stand apart in the source; their conditions may differ.

Tests used:
[1] = system: recombinant human Dicer processing pre-let7a-1; experiment: Dicer activity assay in the presence of peptide, substrate pre-let7a-1; assay type: biochemical; details: for initial reaction velocity (V0) of Dicer, normalized to no peptide: 400 nM peptide, pre-let7a-1 substrate, FIG. 2; for initial reaction velocity of Dicer: FIG. 3
Protocol: Two types of pre-miRNA (pre-let7a-1, pre-miR16-1) used as the substrate for the Dicer enzyme activity assay was ordered and manufactured by ST Pharm Co., Ltd (FIG. 1). For Dicer activity assay, the 5′ end of the synthesized pre-miRNA was labeled with ^32p isotope. Two pmole of each pre-miRNA was isotope labeled with […] of [g-^32P]ATP (New England Biolabs) using 10 units of T4 polynucleotide kinase (New England Biolabs). Total volume of 10 μl was isotope labeled for 1 hr at 37° C. The isotope labeled RNA obtained after the reaction was purified using G-25 Sephadex column (Sigma). The purified substrate was used for measuring Dicer enzyme activity. Total reaction mixture of 30 μl containing 1 nM of isotope labeled pre-miRNA and 0.001 u/μl of recombinant human Dicer (Genlantis, CA, USA) were incubated at 37° C. in 24 mM 4-(2-hydroxyethyl)-1-piperazineethanesulfonic acid, HEPES) buffer system containing 200 mM NaCl, 0.04 mM EDTA, 1 mM ATP and 2.5 mM MgCl2(pH 8.0). After reacting for 0, 10, 30, […], 3 μl of each reaction mixture was mixed with 5 μl of RNA gel loading buffer {95% formamide, 10 mM ethylenediaminetetraacetic acid (EDTA), 0.05% FF (xylene cyanol FF)} and incubated for 5 min at 65° C. The amount of the reaction product was determined by gel running in 15% polyacrylamide gel containing 7M urea, and then the initial reaction velocity (V0) from each reaction was compared. The initial reaction velocity (V0) of the enzyme is the reaction velocity of the initial linear time (until 30 min). Each initial velocity was normalized with the initial velocity from each substrate condition without peptide treatment. The initial reaction velocity of Dicer for pre-let7a-1 and pre-miR16-1 without peptide treatment were […] and 0.018 fmole/min, respectively. Each of the initial reaction velocity is a mean data of more than 3 measurements, and the standard deviation is shown as error bars.

[2] = system: mature miR16-1 in HCT116 cells; experiment: Production of mature miRNA in HCT116 cells by northern blotting; assay type: cell-based; details: 2 μM peptide, 3 hrs, FIG. 4
Protocol: The HCT116 cell was purchased from American Type Culture Collection (ATCC) and was cultured in RPMI1640 medium at 37° C., under 5% CO2. Total RNA was extracted using Trizol reagent (Invitrogen) according to the manufactures recommended protocol.
The change in RNA amount was analyzed by culturing the cells with 2 μM concentration of peptide 2b or peptide 2c and with lipofectamine.
HCT116 cells were treated with 2 μM of peptide 2b, 2c, 1e or 0.2 μg/ml of doxorubicin for 3 hrs before analyzing the production of mature miRNA in total RNA using northern blotting. The 18S rRNA band intensity was used as the loading control. […] Peptide 1e was used as a negative control. Decade marker (Ambion) and 10˜20 μg of total RNA were separated by using 12.5% polyacrylamide gel containing 7M urea in 20 mM of 3-(N-morpholino)propanesulfonic acid (MOPS)-NaOH(pH 7.0) buffer at 350V for 2 hrs. RNA blotting was performed by chemical cross-linking method. Each of the separated RNA was transferred with the neutral nylon membrane (Hybond NX, Amersham/Pharmacia) and crosslinked to the membrane using 1-ethyl-3-(3-dimethylaminopropyl)carbodiimide (EDC). The membrane was prehybridized with the hybridization buffer (Clontech, CA, USA) containing 50 μl of 10 mg/ml of salmon sperm DNA. Next, the isotope labeled probe DNA which is complementary to the miRNA sequence was hybridized for 2 hrs in the same buffer condition.
The probe was isotope labeled with 25 μCi of [γ-^32P] ATP (New England Biolabs) and 5 units of polynucleotide kinase (New England Biolabs). The probe was ethanol precipitated and dissolved in 50 μl of DEPC treated water for use. The membrane was washed twice for 30 min with 200 ml of wash buffer containing 0.3 M NaCl, 0.03 M sodium citrate and 0.05% sodium dodecyl sulfate (SDS)(pH 7.0), then washed twice for 15 min with 200 ml of wash buffer containing 0.015 M NaCl, 0.0015 M sodium citrate and 0.1% SDS(pH 7.0). The membrane was exposed on the phosphorimager screen and each of the band intensity was detected by FLA-3000 and analyzed by using MultiGauge Ver. 3.0 software (Fuji Photo).

| EC50 ([1]; FIG. 3, concentration dependence, pre-miRNA substrate not named, read-out: EC50 of initial velocity of Dicer in processing pre-miRNA) [nM] | Sequence | initial reaction velocity (V0) of Dicer, normalized to no peptide [1] | hill slope ([1]; FIG. 3, concentration dependence, pre-miRNA substrate not named) | initial reaction velocity of Dicer ([1]; peptide concentration higher than 100 nM) | initial reaction velocity of Dicer ([1]; peptide concentration higher than 1,000 nM) | level of mature miR16-1 [2] |
| --- | --- | --- | --- | --- | --- | --- |
|  | WKKLLKLLKKWLKLAG [Peptide 2c, Ac-WKKLLKLLKKWLKLAG, 14] | increase in initial reaction velocity; also recorded: accelerated |  |  |  |  |
| 940 | WKKLLKWLKKLLKLAG [Peptide 2b, Ac-WKKLLKWLKKLLKLAG, 13] | highest acceleration; also recorded: profound increase | 3.5 | significant increase; also recorded: rapid increase | decrease | increased |
